Test system: chemokine receptor
Experiment: activity of separated cis/trans isomers (test not described)
Conditions: cis versus trans isomer of the same example, separated by chromatography; values not given

SMILES	relative activity of the separated isomers
CC(O)[C@]1(C(=O)NCc2cncc(C(F)(F)F)c2)C[C@@H](N2CC[C@@]3(C=Cc4ccccc43)[C@@H](C)C2)C1 (mixture of isomers) [Example 122 cis isomer]	more active isomer
C[C@H]1CN(C2CC(C(=O)NCc3cc(C(F)(F)F)cc(C(F)(F)F)c3)C2)CC[C@@]12C=Cc1ccccc12 (stereo partly drawn) [Example 1 cis isomer]	more active isomer
CN(C1CCOCC1)C1CC(C(=O)NCc2cc(C(F)(F)F)cc(C(F)(F)F)c2)(c2ccccc2)C1 (stereo not drawn) [Example 41 cis isomer]	more active isomer
CN(C1CCOCC1)C1CC(C(=O)NCc2cc(F)cc(C(F)(F)F)c2)(c2ccccc2)C1 (stereo not drawn) [Example 42 trans isomer]	active isomer
C[C@H]1CN(C2CC(CNC(=O)c3cc(C(F)(F)F)cc(C(F)(F)F)c3)(c3ccccc3)C2)CC[C@@]12C=Cc1ccccc12 (stereo partly drawn) [Example 43 cis isomer]	active isomer
C[C@H]1CN(C2CC(C)(C(=O)NCc3cc(C(F)(F)F)cc(C(F)(F)F)c3)C2)CC[C@@]12C=Cc1ccccc12 (stereo partly drawn) [Example 54 cis isomer]	more active isomer

— patent publication US7553841B2, “Amino cyclobutylamide modulators of chemokine receptor activity” (Merck & Co., Inc., priority 2003, dated 2009)
